Data taken from US20260216198A1, “GPR35 MODULATORS” (ThirtyFiveBio Limited, priority 2023, published 2026).

target: T1, GPR35 (Homo sapiens, UniProt Q9HC97); assay: cellular GPR35 phospho-ERK HTRF assay (inhibition of lodoxamide-induced phospho-ERK signal); type: cell-based; conditions: GPR35-CHO-K1-mt aequorin-Gα16 cell line; agonist lodoxamide at EC80; read-out: Activity Group (IC50, inhibition of GPR35 agonist-induced phospho-ERK signal)
T1 construct: expressed in transfected cells; host or cells: CHO-K1 cells co-expressing mitochondrial aequorin and Gα16
Description: (§1) The functional GPR35 assay as described in the accompanying examples measures the ability of GPR35 modulators to inhibit a GPR35 agonist-induced phospho-ERK signal. This is expressed as the concentration of modulator required to reduce the phospho-ERK signal by 50 percent, i.e. the IC50; the signal window being defined as the difference between agonist plus modulator vehicle (no modulator) and agonist vehicle (no agonist) controls.
as §1, with “functional” for “functional GPR35”, “assay” for “assay as”, “described” for “described in the accompanying examples”
This assay is a cellular GPR35 phospho-ERK homogeneous time resolved fluorescence (HTRF) assay using the GPR35-CHO-K1-mt aequorin-Gα16 cell line. Upon activation of GPR35 with the agonist lodoxamide at EC80 concentration, ERK 1/2 is phosphorylated, and after lysis of the cell membrane, phospho-ERK1/2 (Thr202/Tyr204) is detected in a sandwich assay using two different specific antibodies, one labelled with Eu^3+-cryptate (donor) and the second with d2 (acceptor). When the dyes are in proximity, the excitation of the donor with a light source (laser or flash lamp) triggers a Fluorescence Resonance Energy Transfer (FRET) towards the acceptor, resulting in specific acceptor fluorescence (at 665 nm). The specific signal is directly proportional to the amount of phospho-ERK1/2 (Thr202/Tyr204) in the sample. Compounds that interfere with the levels of phospho-ERK1/2 (Thr202/Tyr204) will result in a low HTRF signal.

T1 sequence (Q9HC97 whole entry): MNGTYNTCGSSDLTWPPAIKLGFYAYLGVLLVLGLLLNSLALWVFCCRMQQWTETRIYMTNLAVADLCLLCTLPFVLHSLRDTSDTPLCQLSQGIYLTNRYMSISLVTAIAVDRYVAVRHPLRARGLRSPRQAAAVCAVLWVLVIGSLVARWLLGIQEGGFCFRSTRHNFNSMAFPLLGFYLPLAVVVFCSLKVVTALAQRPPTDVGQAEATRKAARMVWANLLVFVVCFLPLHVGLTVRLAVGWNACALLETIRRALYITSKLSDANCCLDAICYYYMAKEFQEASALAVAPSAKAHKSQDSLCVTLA

First: COc1ccc(-c2cnc(C)c(C(=O)O)c2)cc1C(=O)Nc1ccc(COCc2ccccc2)cc1 [Example 80, 5-[3-[[4-(Benzyloxymethyl)phenyl]carbamoyl]-4-methoxy-phenyl]-2-methyl-pyridine-3-carboxylic acid]
Second: Cc1ccc(-c2cnc(C)c(C(=O)O)c2)cc1C(=O)Nc1ccc(COCc2ccccc2)cc1 [Example 82, 5-[3-[[4-(Benzyloxymethyl)phenyl]carbamoyl]-4-methyl-phenyl]-2-methyl-pyridine-3-carboxylic acid]
The IC50 of the first is lower: less than 1 µM for the first, 1 to 10 µM for the second.

Cc1ncc(-c2cc(C(=O)Nc3ccc(COCc4ccccc4)cc3)c(F)cn2)cc1C(=O)O [Example 76, 5-[4-[[4-(Benzyloxymethyl)phenyl]carbamoyl]-5-fluoro-2-pyridyl]-2-methyl-pyridine-3-carboxylic acid] and Cc1ncc(-c2ccc(F)c(C(=O)Nc3ccc(COCc4ccccc4)cc3)c2)cc1C(=O)O [Example 52, 5-(3-((4-((Benzyloxy)methyl)phenyl)carbamoyl)-4-fluorophenyl)-2-methylnicotinic acid] cannot be ordered by IC50: less than 1 µM for the first, less than 1 µM for the second.

O=C(Nc1ccc(OCCc2ccccc2)cc1)c1cccc(-c2nccc(C(=O)O)n2)c1 [Example 22, 2-(3-((4-Phenethoxyphenyl)carbamoyl)phenyl)pyrimidine-4-carboxylic acid] and Cc1ccc(C(=O)O)nc1-c1cccc(C(=O)Nc2ccc(OCCc3ccccc3)cc2)c1 [Example 24, 5-Methyl-6-(3-((4-phenethoxyphenyl)carbamoyl)phenyl)picolinic acid] cannot be ordered by IC50: less than 1 µM for the first, less than 1 µM for the second.

Cc1cc(C(=O)Nc2ccc(COCc3ccccc3)cc2)cc(-c2cnc(C)c(C(=O)O)c2)n1 [Example 75, 5-[4-[[4-(Benzyloxymethyl)phenyl]carbamoyl]-6-methyl-2-pyridyl]-2-methyl-pyridine-3-carboxylic acid] and Cc1ccc(C(=O)Nc2ccc(COCc3ccccc3)cc2)cc1-c1cnc(C)c(C(=O)O)c1 [Example 83, 5-[5-[[4-(Benzyloxymethyl)phenyl]carbamoyl]-2-methyl-phenyl]-2-methyl-pyridine-3-carboxylic acid] cannot be ordered by IC50: less than 1 µM for the first, less than 1 µM for the second.

Cc1ncc(-c2cccc(C(=O)Nc3ccc(COC4CC4)cc3)c2)cc1C(=O)O [Example 42, 5-(3-((4-(Cyclopropoxymethyl)phenyl)carbamoyl)phenyl)-2-methylnicotinic acid] and O=C(Nc1ccc(COCC2CC2)cc1)c1cccc(-c2cnc(Cl)c(C(=O)O)c2)c1 [Example 45, 2-Chloro-5-(3-((4-((cyclopropylmethoxy)methyl)phenyl)carbamoyl)phenyl)nicotinic acid] fall in the same range of IC50: 1 to 10 µM for the first, 1 to 10 µM for the second.

Cc1ncc(-c2ccc(F)c(C(=O)Nc3ccc(OCC4CC4)cc3)c2)cc1C(=O)O [Example 84, 5-[3-[[4-(Cyclopropylmethoxy)phenyl]carbamoyl]-4-fluoro-phenyl]-2-methyl-pyridine-3-carboxylic acid] and Cc1ncc(-c2cc(C(=O)Nc3ccc(OCC4CC4)cc3)c(F)cn2)cc1C(=O)O [Example 73, 5-[4-[[4-(Cyclopropylmethoxy)phenyl]carbamoyl]-5-fluoro-2-pyridyl]-2-methyl-pyridine-3-carboxylic acid] fall in the same range of IC50: 1 to 10 µM for the first, 1 to 10 µM for the second.

Compared with Cc1ccc(S(=O)(=O)Cc2ccc(NC(=O)c3cccc(-c4cnc(C)c(C(=O)O)c4)c3)cc2)cn1 [Example 101, 2-Methyl-5-[3-[[4-[(6-methyl-3-pyridyl)sulfonylmethyl]phenyl]carbamoyl]phenyl]pyridine-3-carboxylic acid], Cc1ncc(-c2cccc(C(=O)Nc3ccc(CS(=O)(=O)c4ccc(Cl)cc4)cc3)c2)cc1C(=O)O [Example 96, 5-[3-[[4-[(4-Chlorophenyl)sulfonylmethyl]phenyl]carbamoyl]phenyl]-2-methyl-pyridine-3-carboxylic acid] is lower in IC50: 1 to 10 µM for the first, less than 1 µM for the second.

Cc1ncc(-c2nccc(C(=O)Nc3ccc(OCCc4ccccc4)cc3)n2)cc1C(=O)O [Example 55, 2-Methyl-5-(4-((4-phenethoxyphenyl)carbamoyl)pyrimidin-2-yl)nicotinic acid] and CSc1ncc(C(=O)Nc2ccc(OCCc3ccccc3)cc2)cc1-c1cnc(C)c(C(=O)O)c1 [Example 94, 2-Methyl-5-[2-methylsulfanyl-5-[[4-(2-phenylethoxy)phenyl]carbamoyl]-3-pyridyl]pyridine-3-carboxylic acid] fall in the same range of IC50: 1 to 10 µM for the first, 1 to 10 µM for the second.

First: Cc1ncc(-c2cc(C(=O)Nc3ccc(COCc4ccccc4)cc3)ccc2F)cc1C(=O)O [Example 85, 5-[5-[[4-(Benzyloxymethyl)phenyl]carbamoyl]-2-fluoro-phenyl]-2-methyl-pyridine-3-carboxylic acid]
Second: Cc1ncc(-c2nc(C(=O)Nc3ccc(COCc4ccccc4)cc3)cs2)cc1C(=O)O [Example 50, 5-(4-((4-((Benzyloxy)methyl)phenyl)carbamoyl)thiazol-2-yl)-2-methylnicotinic acid]
The IC50 of the first is lower: less than 1 µM for the first, 1 to 10 µM for the second.

First: Cn1cc(-c2cccc(C(=O)Nc3ccc(OCCc4ccccc4)cc3)c2)cc(C(=O)O)c1=O [Example 31, 1-Methyl-2-oxo-5-(3-((4-phenethoxyphenyl)carbamoyl)phenyl)-1,2-dihydropyridine-3-carboxylic acid]
Second: O=C(Nc1ccc(OCCc2ccccc2)cc1)c1cccc(-c2c[nH]c(=O)c(C(=O)O)c2)c1 [Example 3, 2-oxo-5-(3-((4-Phenethoxyphenyl)carbamoyl)phenyl)-1,2-dihydropyridine-3-carboxylic acid]
The IC50 of the first is higher: 1 to 10 µM for the first, less than 1 µM for the second.

O=C(Nc1ccc(OCCc2ccccc2)cc1)c1cccc(-c2ccc(O)c(C(=O)O)c2)c1 [Example 1, 4-Hydroxy-3′-((4-phenethoxyphenyl)carbamoyl)-[1,1′-biphenyl]-3-carboxylic acid] and Nc1ccc(-c2cccc(C(=O)Nc3ccc(OCCc4ccccc4)cc3)c2)cc1C(=O)O [Example 16, 4-amino-3′-((4-phenethoxyphenyl)carbamoyl)-[1,1′-biphenyl]-3-carboxylic acid] cannot be ordered by IC50: less than 1 µM for the first, less than 1 µM for the second.

COc1ccc(S(=O)(=O)Cc2ccc(NC(=O)c3cccc(-c4cnc(C)c(C(=O)O)c4)c3)cc2)cc1 [Example 99, 5-[3-[[4-[(4-Methoxyphenyl)sulfonylmethyl]phenyl]carbamoyl]phenyl]-2-methyl-pyridine-3-carboxylic acid] and Cc1ncc(-c2cccc(C(=O)Nc3ccc(CS(=O)(=O)c4cccc(Cl)c4)cc3)c2)cc1C(=O)O [Example 97, 5-[3-[[4-[(3-Chlorophenyl)sulfonylmethyl]phenyl]carbamoyl]phenyl]-2-methyl-pyridine-3-carboxylic acid] fall in the same range of IC50: 1 to 10 µM for the first, 1 to 10 µM for the second.

Compared with O=C(Nc1ccc(OCCc2ccccc2)cc1)c1cccc(-c2cnc(CN3CCOCC3)c(C(=O)O)c2)c1 [Example 32, 2-(Morpholinomethyl)-5-(3-((4-phenethoxyphenyl)carbamoyl)phenyl)nicotinic acid], COc1ncc(-c2cccc(C(=O)Nc3ccc(OCCc4ccccc4)cc3)c2)cc1C(=O)O [Example 17, 2-Methoxy-5-(3-((4-phenethoxyphenyl)carbamoyl)phenyl)nicotinic acid] is lower in IC50: 1 to 10 µM for the first, less than 1 µM for the second. The second is the more potent here.

Compared with O=C(Nc1ccc(OCCc2ccccc2)nc1)c1cccc(-c2cccc(C(=O)O)n2)c1 [Example 46, 6-(3-((6-Phenethoxypyridin-3-yl)carbamoyl)phenyl)picolinic acid], Nc1ncc(-c2cccc(C(=O)Nc3ccc(OCCc4ccccc4)cc3)c2)nc1C(=O)O [Example 9, 3-Amino-6-(3-((4-phenethoxyphenyl)carbamoyl)phenyl)pyrazine-2-carboxylic acid] is lower in IC50: 1 to 10 µM for the first, less than 1 µM for the second. The second is the more potent here.

Compared with Cc1ncc(-c2cc(C(=O)Nc3ccc(COC4CC4)c(F)c3)ccn2)cc1C(=O)O [Example 78, 5-[4-[[4-(Cyclopropoxymethyl)-3-fluoro-phenyl]carbamoyl]-2-pyridyl]-2-methyl-pyridine-3-carboxylic acid], Cc1ncc(-c2ccc(F)c(C(=O)Nc3ccc(OC(C)C4CC4)c(F)c3)c2)cc1C(=O)O (stereo not drawn) [Example 92, 5-[3-[[4-(1-Cyclopropylethoxy)-3-fluoro-phenyl]carbamoyl]-4-fluoro-phenyl]-2-methyl-pyridine-3-carboxylic acid] is lower in IC50: 1 to 10 µM for the first, less than 1 µM for the second. The second is the more potent here.

CS(=O)(=O)Nc1ncc(-c2cccc(C(=O)Nc3ccc(OCCc4ccccc4)cc3)c2)cc1C(=O)O [Example 30, 2-(Methylsulfonamido)-5-(3-((4-phenethoxyphenyl)carbamoyl)phenyl)nicotinic acid] and Cc1ccc(-c2cccc(C(=O)Nc3ccc(OCCc4ccccc4)cc3)c2)nc1C(=O)O [Example 8, 3-Methyl-6-(3-((4-phenethoxyphenyl)carbamoyl)phenyl)picolinic acid] cannot be ordered by IC50: less than 1 µM for the first, less than 1 µM for the second.

Work on Cc1ncc(-c2ccc(F)c(C(=O)Nc3ccc(OC(C)C4CC4)c(C#N)c3)c2)cc1C(=O)O (stereo not drawn) [Example 93, 5-[3-[[3-Cyano-4-(1-cyclopropylethoxy)phenyl]carbamoyl]-4-fluoro-phenyl]-2-methyl-pyridine-3-carboxylic acid] yielded an IC50 of 1 to 10 µM.
